The record followed here is ChEMBL document CHEMBL3639218, “Bicyclic heterocycle compounds and their uses in therapy” (2015).

SMILES strings stand for the structures.

In experiment [1] the target is Baculoviral IAP repeat-containing protein 2 (Homo sapiens, UniProt Q13490). The experiment can be described thus: In vitro Competitive Displacement Binding Assays : Modified SMAC peptides and compounds were tested for their ability to displace the fluorescent tracer from either XIAP, clAP-1 or clAP-2. BIR3 domains of clAP-1 , clAP-2 and XIAP were incubated with test compounds or SMAC based peptides and their respective peptide probes (Peptide Protein Research) in assay buffer (50mM Hepes pH 7.5, […] Tween-.

In experiment [2] the target is E3 ubiquitin-protein ligase XIAP (Homo sapiens, UniProt P98170). The description is as above.

In the case of `COC[C@H]1CN[C@H](C)CN1CC(=O)N1CC(C)(C)c2cnc(CCC(C)C)cc21`, the IC50 in experiment [1] worked out at 16 nM. This lies in the double-digit nanomolar range.
Still for that read-out and setting: with `C[C@@H]1CN(CC(=O)N2CCc3ccc(Br)cc32)CCN1` the figure was 40000 nM.
As to `CC(C)[C@H]1CN[C@H](C)CN1CC(=O)N1CCc2ccc(Br)cc21`, the IC50 in experiment [2] was 2400 nM.
